Measurements: PMC2248166, “Quantitative peptide binding motifs for 19 human and mouse MHC class I molecules derived using positional scanning combinatorial peptide libraries” (Immunome Research, 2008)
Where a SMILES comes first, the peptide text is derived from it.

Legend:
Assay in all cases: biochemical
Assay type in all cases: binding
HLA A*3201 = HLA A*3201 (Homo sapiens, UniProt P04439, A270S/D101S/D185E/E176V/E277Q/F133L/G103R/G107R/G231S/H175R/I121M/I218V/I322F/K168Q/L105A/L300P/L318F/M331R/P208A/P217A/Q94H/R106L/R138Q/S129P/T104I/T323A/T345S/V100E/V321M/V358M)
HLA B*1501 = HLA B*1501 (Homo sapiens, UniProt P01889, A329T/A93T/A95T/C349S/D201E/D98Y/E187L/E204Q/E69M/E70A/K202T/N87E/Q94N/R155S/R180W/S121R/S35A/S48A/V306I/V36M/Y140S/Y91S)
HLA B*0801 = HLA B*0801 (Homo sapiens, UniProt P01889, A93T/A95T/D138N/E176V/E187T/K202T/Q94N/R180D/S35A/V36M/Y33D/Y91F)
HLA A*3001 = HLA A*3001 (Homo sapiens, UniProt P04439, D140H/D185E/E176W/F33S/G80R/H175R/K168Q/R138E/R41S)
HLA B*1503 = HLA B*1503 (Homo sapiens, UniProt P01889, A329T/A93T/A95T/C349S/D201E/D98Y/E187L/E204Q/K202T/N87E/Q94N/R155S/R180L/S121R/S35A/V306I/V36M/Y140S/Y91S)

HLA A*3001, sequence (P04439 25-365 limits assumed, stated change not applied): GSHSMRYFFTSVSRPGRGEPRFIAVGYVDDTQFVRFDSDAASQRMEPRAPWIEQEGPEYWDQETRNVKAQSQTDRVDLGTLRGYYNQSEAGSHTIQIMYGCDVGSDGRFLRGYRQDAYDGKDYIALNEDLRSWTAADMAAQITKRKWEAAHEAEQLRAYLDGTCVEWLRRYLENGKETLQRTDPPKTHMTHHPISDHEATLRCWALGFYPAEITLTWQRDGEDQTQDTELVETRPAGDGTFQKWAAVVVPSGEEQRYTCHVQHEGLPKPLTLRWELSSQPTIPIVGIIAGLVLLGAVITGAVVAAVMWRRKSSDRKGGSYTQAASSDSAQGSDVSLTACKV

CSCC[C@H](NC(=O)[C@@H](NC(=O)[C@@H](N)CCCCN)[C@@H](C)O)C(=O)N[C@@H](C)C(=O)N[C@H](C(=O)N[C@H](C(=O)N[C@@H](Cc1ccc(O)cc1)C(=O)N[C@@H](CCC(=O)O)C(=O)N[C@@H](CC(C)C)C(=O)O)[C@@H](C)O)C(C)C [3102.0293] (H-KTMAVTYEL-OH)
IC50 (HLA A*3201): 0.58 nM | IC50 (HLA B*1501): 5.5 nM | IC50 (HLA B*0801): 19 nM

CC[C@H](C)[C@H](NC(=O)[C@H](CO)NC(=O)[C@H](C)NC(=O)[C@@H](NC(=O)[C@@H](NC(=O)[C@H](CC(N)=O)NC(=O)[C@H](CCCNC(=N)N)NC(=O)[C@@H](NC(=O)[C@@H](N)CCCNC(=N)N)C(C)C)[C@@H](C)CC)[C@@H](C)CC)C(=O)O [3102.0367] (H-RVRNIIASI-OH)
IC50 (HLA A*3201): 1 nM | IC50 (HLA B*0801): 22 nM | IC50 (HLA A*3001): 0.1 nM

CC(C)[C@H](NC(=O)[C@H](Cc1ccccc1)NC(=O)[C@H](CC(=O)O)NC(=O)[C@H](CC(N)=O)NC(=O)[C@H](CCCCN)NC(=O)[C@@H]1CCCN1C(=O)[C@@H](N)Cc1ccccc1)C(=O)N[C@@H](CO)C(=O)N[C@@H](Cc1ccccc1)C(=O)O [3102.0637] (H-FPKNDFVSF-OH)
IC50 (HLA B*1501): 10 nM | IC50 (HLA B*0801): 16 nM | IC50 (HLA B*1503): 4.2 nM

CC[C@H](C)[C@H](NC(=O)[C@@H](N)CCCNC(=N)N)C(=O)N[C@@H](CCCNC(=N)N)C(=O)N[C@@H](CCCNC(=N)N)C(=O)N[C@@H](Cc1ccccc1)C(=O)N[C@@H](CCCNC(=N)N)C(=O)N[C@@H](CCCNC(=N)N)C(=O)N1CCC[C@H]1C(=O)N[C@@H](CCSC)C(=O)O [3102.0681] (H-RIRRFRRPM-OH)
IC50 (HLA B*1501): 36 nM | IC50 (HLA B*0801): 8.9 nM | IC50 (HLA B*1503): 30 nM | IC50 (HLA A*3001): 4.4 nM

CC[C@H](C)[C@H](NC(=O)[C@H](Cc1c[nH]cn1)NC(=O)[C@H](CS)NC(=O)[C@H](CC(C)C)NC(=O)[C@H](CC(C)C)NC(=O)[C@@H](N)CC(N)=O)C(=O)N[C@@H](Cc1ccc(O)cc1)C(=O)N[C@@H](CO)C(=O)N[C@@H](CC(C)C)C(=O)O [3102.0692] (H-NLLCHIYSL-OH)
IC50 (HLA A*3201): 232 nM | IC50 (HLA B*0801): 0.31 nM

CSCC[C@H](NC(=O)[C@H](CC(C)C)NC(=O)[C@@H](N)CCSC)C(=O)N[C@@H](CC(N)=O)C(=O)N[C@@H](Cc1c[nH]cn1)C(=O)N[C@H](C(=O)N[C@@H](C)C(=O)N[C@@H](CC(N)=O)C(=O)N[C@@H](Cc1ccccc1)C(=O)O)C(C)C [3102.0720] (H-MLMNHVANF-OH)
IC50 (HLA A*3201): 8.3 nM | IC50 (HLA B*0801): 3.3 nM

CC[C@H](C)[C@H](NC(=O)[C@@H](NC(=O)[C@H](Cc1c[nH]cn1)NC(=O)[C@H](CCCNC(=N)N)NC(=O)[C@H](CC(C)C)NC(=O)[C@@H](NC(=O)[C@H](Cc1ccccc1)NC(=O)[C@H](CCSC)NC(=O)[C@@H](N)CO)[C@@H](C)O)[C@@H](C)CC)C(=O)O [3102.0752] (H-SMFTLRHII-OH)
IC50 (HLA A*3201): 83 nM | IC50 (HLA B*0801): 1.8 nM

CC[C@H](C)[C@H](NC(=O)[C@H](CCCNC(=N)N)NC(=O)[C@H](Cc1ccc(O)cc1)NC(=O)[C@H](CCSC)NC(=O)[C@H](CO)NC(=O)[C@@H](N)CCCNC(=N)N)C(=O)N1CCC[C@H]1C(=O)N1CCC[C@H]1C(=O)N[C@@H](Cc1ccccc1)C(=O)O [3102.0766] (H-RSMYRIPPF-OH)
IC50 (HLA A*3201): 0.73 nM | IC50 (HLA B*0801): 158 nM

CC[C@H](C)[C@H](NC(=O)[C@@H](N)Cc1ccccc1)C(=O)N[C@@H](CCCNC(=N)N)C(=O)N[C@@H](Cc1ccc(O)cc1)C(=O)N[C@@H](CCCNC(=N)N)C(=O)N[C@@H](CCSC)C(=O)N[C@@H](Cc1c[nH]cn1)C(=O)N1CCC[C@H]1C(=O)N[C@@H](CCSC)C(=O)O [3102.0768] (H-FIRYRMHPM-OH)
IC50 (HLA B*1501): 1.2 nM | IC50 (HLA B*0801): 0.21 nM | IC50 (HLA B*1503): 22 nM

CC[C@H](C)[C@H](NC(=O)[C@H](CC(C)C)NC(=O)[C@@H](N)CC(N)=O)C(=O)N[C@H](C(=O)N[C@@H](CC(C)C)C(=O)N[C@@H](C)C(=O)N[C@H](C(=O)N[C@@H](CO)C(=O)N[C@@H](Cc1ccccc1)C(=O)O)C(C)C)[C@@H](C)O [3102.0798] (H-NLITLAVSF-OH)
IC50 (HLA B*1501): 81 nM | IC50 (HLA B*0801): 328 nM | IC50 (HLA B*1503): 15 nM

CC(C)C[C@H](NC(=O)[C@H](CCC(=O)O)NC(=O)[C@H](CC(N)=O)NC(=O)[C@H](CCCNC(=N)N)NC(=O)[C@H](CC(=O)O)NC(=O)[C@H](CCCCN)NC(=O)[C@H](CC(C)C)NC(=O)[C@@H](N)CC(C)C)C(=O)N[C@@H](Cc1ccccc1)C(=O)O [3102.0842] (H-LLKDRNELF-OH)
IC50 (HLA B*1501): 1.8 nM | IC50 (HLA B*0801): 41 nM | IC50 (HLA B*1503): 16 nM

CC[C@H](C)[C@H](NC(=O)[C@H](CCCNC(=N)N)NC(=O)[C@H](Cc1c[nH]cn1)NC(=O)[C@H](CS)NC(=O)[C@@H](NC(=O)[C@@H](N)CCSC)C(C)C)C(=O)N[C@@H](CC(C)C)C(=O)N[C@H](C(=O)N[C@@H](Cc1ccc(O)cc1)C(=O)O)[C@@H](C)O [3102.0849] (H-MVCHRILTY-OH)
IC50 (HLA B*1501): 70 nM | IC50 (HLA B*0801): 220 nM | IC50 (HLA B*1503): 28 nM

CSCC[C@H](NC(=O)[C@@H](N)CC(C)C)C(=O)N[C@@H](Cc1ccccc1)C(=O)N[C@@H](CCCCN)C(=O)N[C@@H](Cc1c[nH]cn1)C(=O)N[C@@H](CC(C)C)C(=O)N[C@@H](CC(C)C)C(=O)N[C@@H](Cc1c[nH]cn1)C(=O)N1CCC[C@H]1C(=O)O [3102.0908] (H-LMFKHLLHP-OH)
IC50 (HLA B*1501): 103 nM | IC50 (HLA B*0801): 1 nM | IC50 (HLA B*1503): 26 nM

CC[C@H](C)[C@H](NC(=O)[C@@H]1CCCN1C(=O)[C@H](CC(C)C)NC(=O)[C@H](Cc1ccccc1)NC(=O)[C@H](CO)NC(=O)[C@H](CCSC)NC(=O)[C@H](CCCCN)NC(=O)[C@H](CO)NC(=O)[C@@H](N)CCC(=O)O)C(=O)O [3102.0979] (H-ESKMSFLPI-OH)
IC50 (HLA B*1501): 358 nM | IC50 (HLA B*0801): 1.1 nM

CC[C@H](C)[C@H](NC(=O)[C@H](CCCCN)NC(=O)[C@@H]1CCCN1C(=O)[C@H](CCCNC(=N)N)NC(=O)[C@@H](NC(=O)[C@@H](N)CC(C)C)[C@@H](C)CC)C(=O)N[C@@H](CC(C)C)C(=O)N[C@@H](CO)C(=O)N[C@@H](CCSC)C(=O)O [3102.0983] (H-LIRPKILSM-OH)
IC50 (HLA B*1501): 10 nM | IC50 (HLA B*0801): 0.55 nM

CC[C@H](C)[C@H](NC(=O)[C@H](CO)NC(=O)[C@@H](N)CCCNC(=N)N)C(=O)N[C@@H](CCCNC(=N)N)C(=O)N[C@@H](CCCCN)C(=O)N[C@@H](Cc1ccccc1)C(=O)N[C@@H](CC(N)=O)C(=O)N[C@H](C(=O)N[C@@H](CCSC)C(=O)O)[C@@H](C)O [3102.1003] (H-RSIRKFNTM-OH)
IC50 (HLA B*1501): 4.4 nM | IC50 (HLA B*0801): 17 nM

CC[C@H](C)[C@H](NC(=O)[C@@H](NC(=O)[C@H](CO)NC(=O)[C@H](CO)NC(=O)[C@H](CO)NC(=O)[C@H](CCCCN)NC(=O)[C@H](C)NC(=O)[C@@H](NC(=O)[C@@H](N)CC(C)C)[C@@H](C)CC)C(C)C)C(=O)O [3102.1021] (H-LIAKSSSVI-OH)
IC50 (HLA B*1501): 23 nM | IC50 (HLA B*0801): 13 nM | IC50 (HLA A*3001): 11 nM

CC[C@H](C)[C@H](NC(=O)[C@@H](NC(=O)[C@H](CC(C)C)NC(=O)CNC(=O)[C@H](C)NC(=O)[C@H](Cc1ccc(O)cc1)NC(=O)[C@H](CCCCN)NC(=O)[C@H](CC(C)C)NC(=O)[C@@H](N)CC(C)C)[C@@H](C)O)C(=O)O [3102.1023] (H-LLKYAGLTI-OH)
IC50 (HLA B*1501): 4.5 nM | IC50 (HLA B*0801): 105 nM

CSCC[C@H](NC(=O)[C@@H](N)CO)C(=O)N[C@@H](CCCCN)C(=O)N[C@H](C(=O)N[C@H](C(=O)N[C@@H](Cc1ccccc1)C(=O)N[C@@H](CCC(N)=O)C(=O)N[C@H](C(=O)N[C@@H](Cc1ccccc1)C(=O)O)C(C)C)C(C)C)[C@@H](C)O [3102.1083] (H-SMKTVFQVF-OH)
IC50 (HLA B*1501): 1.6 nM | IC50 (HLA B*0801): 179 nM | IC50 (HLA B*1503): 3.8 nM

CC[C@H](C)[C@H](NC(=O)[C@H](Cc1ccccc1)NC(=O)[C@H](CCCNC(=N)N)NC(=O)[C@H](CCC(=O)O)NC(=O)[C@@H](NC(=O)[C@H](CCSC)NC(=O)[C@@H](N)Cc1ccc(O)cc1)[C@@H](C)CC)C(=O)N[C@@H](CO)C(=O)N[C@@H](Cc1ccccc1)C(=O)O [3102.1085] (H-YMIERFISF-OH)
IC50 (HLA B*1501): 0.11 nM | IC50 (HLA B*0801): 0.35 nM | IC50 (HLA B*1503): 0.046 nM

CC(C)[C@H](NC(=O)[C@H](CCCNC(=N)N)NC(=O)[C@@H](N)Cc1ccccc1)C(=O)N[C@H](C(=O)N[C@@H](CCCCN)C(=O)N1CCC[C@H]1C(=O)N[C@@H](CC(N)=O)C(=O)N[C@@H](CO)C(=O)N[C@@H](Cc1ccccc1)C(=O)O)C(C)C [3102.1127] (H-FRVVKPNSF-OH)
IC50 (HLA B*1501): 108 nM | IC50 (HLA B*0801): 91 nM

CC[C@H](C)[C@H](NC(=O)[C@@H](NC(=O)[C@H](CC(N)=O)NC(=O)[C@H](CCSC)NC(=O)[C@@H](N)CO)[C@@H](C)O)C(=O)N[C@@H](CCCCN)C(=O)N[C@@H](CCC(N)=O)C(=O)N[C@@H](CO)C(=O)N[C@@H](Cc1ccccc1)C(=O)O [3102.1144] (H-SMNTIKQSF-OH)
IC50 (HLA A*3201): 293 nM | IC50 (HLA B*0801): 450 nM | IC50 (HLA B*1503): 17 nM

CSCC[C@H](NC(=O)[C@@H](NC(=O)[C@H](CO)NC(=O)CNC(=O)[C@H](CC(=O)O)NC(=O)[C@@H](NC(=O)[C@@H](NC(=O)[C@H](CCSC)NC(=O)[C@@H](N)Cc1ccc(O)cc1)C(C)C)C(C)C)C(C)C)C(=O)O [3102.1153] (H-YMVVDGSVM-OH)
IC50 (HLA B*1501): 2.5 nM | IC50 (HLA B*0801): 390 nM | IC50 (HLA B*1503): 1 nM
